# Data taken from ChEMBL document CHEMBL2074135, “Recognition of L-amino acid ester compounds by rat peptide transporters PEPT1 and PEPT2” (J Pharmacol Exp Ther, 1999).
# Several values for one entry are separate records, joined by “and”; a condition that tells them apart may be missing. Equal values may be shown once.
# T1: Solute carrier family 15 member 2 (Rattus norvegicus, UniProt Q63424)
# T1 sequence (Q63424 whole entry): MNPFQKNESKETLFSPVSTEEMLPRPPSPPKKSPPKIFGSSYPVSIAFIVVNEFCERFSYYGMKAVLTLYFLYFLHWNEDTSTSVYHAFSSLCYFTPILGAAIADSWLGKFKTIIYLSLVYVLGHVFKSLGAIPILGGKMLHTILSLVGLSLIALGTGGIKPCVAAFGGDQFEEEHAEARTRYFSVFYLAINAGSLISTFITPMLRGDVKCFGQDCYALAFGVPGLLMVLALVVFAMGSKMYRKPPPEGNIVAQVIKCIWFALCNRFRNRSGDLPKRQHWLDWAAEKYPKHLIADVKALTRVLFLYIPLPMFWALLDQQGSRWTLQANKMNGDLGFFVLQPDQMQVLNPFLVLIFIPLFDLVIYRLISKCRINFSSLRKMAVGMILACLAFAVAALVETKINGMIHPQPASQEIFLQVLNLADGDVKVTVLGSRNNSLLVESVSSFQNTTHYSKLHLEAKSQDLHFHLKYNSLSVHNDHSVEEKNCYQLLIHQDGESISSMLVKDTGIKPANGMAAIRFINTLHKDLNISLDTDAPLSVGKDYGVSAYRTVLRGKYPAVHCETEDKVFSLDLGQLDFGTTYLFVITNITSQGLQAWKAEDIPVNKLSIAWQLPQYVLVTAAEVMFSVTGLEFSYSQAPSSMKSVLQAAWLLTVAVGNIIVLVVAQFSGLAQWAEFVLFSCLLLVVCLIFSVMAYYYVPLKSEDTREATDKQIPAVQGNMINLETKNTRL
# T2: Solute carrier family 15 member 1 (Rattus norvegicus, UniProt P51574)
# T2 sequence (P51574 whole entry): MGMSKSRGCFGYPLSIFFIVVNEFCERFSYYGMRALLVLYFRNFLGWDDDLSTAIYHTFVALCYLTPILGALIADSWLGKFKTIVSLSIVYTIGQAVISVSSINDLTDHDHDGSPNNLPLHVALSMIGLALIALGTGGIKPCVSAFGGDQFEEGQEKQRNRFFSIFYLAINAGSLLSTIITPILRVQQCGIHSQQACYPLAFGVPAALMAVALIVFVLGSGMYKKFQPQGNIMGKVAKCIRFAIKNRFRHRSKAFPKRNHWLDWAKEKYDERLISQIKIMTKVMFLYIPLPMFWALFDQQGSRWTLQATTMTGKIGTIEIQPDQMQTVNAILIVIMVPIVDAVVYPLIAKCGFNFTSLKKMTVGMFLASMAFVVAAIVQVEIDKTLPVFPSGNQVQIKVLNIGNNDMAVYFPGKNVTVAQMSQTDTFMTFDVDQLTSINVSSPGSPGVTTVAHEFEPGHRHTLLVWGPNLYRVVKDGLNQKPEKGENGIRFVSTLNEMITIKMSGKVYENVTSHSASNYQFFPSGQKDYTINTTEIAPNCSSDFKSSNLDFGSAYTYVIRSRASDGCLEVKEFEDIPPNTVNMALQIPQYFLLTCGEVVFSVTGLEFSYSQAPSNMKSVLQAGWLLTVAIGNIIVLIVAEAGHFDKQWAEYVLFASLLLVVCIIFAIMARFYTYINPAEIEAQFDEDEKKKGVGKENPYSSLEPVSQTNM
# T3: Solute carrier family 15 member 1 (Rattus norvegicus) (UniProt P51574)
# T3 sequence (whole entry): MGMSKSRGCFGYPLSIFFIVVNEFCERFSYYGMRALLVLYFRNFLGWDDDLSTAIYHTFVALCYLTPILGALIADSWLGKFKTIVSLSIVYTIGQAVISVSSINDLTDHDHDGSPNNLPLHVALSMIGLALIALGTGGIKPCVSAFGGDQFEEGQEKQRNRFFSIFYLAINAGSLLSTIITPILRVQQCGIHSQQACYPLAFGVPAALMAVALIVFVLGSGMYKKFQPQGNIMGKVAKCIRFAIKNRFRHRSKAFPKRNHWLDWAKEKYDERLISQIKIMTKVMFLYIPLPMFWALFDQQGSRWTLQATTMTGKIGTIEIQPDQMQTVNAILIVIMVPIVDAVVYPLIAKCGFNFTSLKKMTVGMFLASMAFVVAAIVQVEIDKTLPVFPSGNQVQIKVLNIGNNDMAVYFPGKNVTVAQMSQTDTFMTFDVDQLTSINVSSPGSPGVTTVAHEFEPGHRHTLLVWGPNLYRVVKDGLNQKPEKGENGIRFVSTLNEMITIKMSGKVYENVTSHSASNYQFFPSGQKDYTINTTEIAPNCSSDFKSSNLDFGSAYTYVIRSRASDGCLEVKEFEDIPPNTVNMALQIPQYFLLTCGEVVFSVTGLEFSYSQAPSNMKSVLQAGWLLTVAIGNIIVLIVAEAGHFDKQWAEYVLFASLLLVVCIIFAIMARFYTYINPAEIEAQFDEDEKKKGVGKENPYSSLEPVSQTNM
# T4: Solute carrier family 15 member 2 (Rattus norvegicus) (UniProt Q63424)
# T4 sequence (whole entry): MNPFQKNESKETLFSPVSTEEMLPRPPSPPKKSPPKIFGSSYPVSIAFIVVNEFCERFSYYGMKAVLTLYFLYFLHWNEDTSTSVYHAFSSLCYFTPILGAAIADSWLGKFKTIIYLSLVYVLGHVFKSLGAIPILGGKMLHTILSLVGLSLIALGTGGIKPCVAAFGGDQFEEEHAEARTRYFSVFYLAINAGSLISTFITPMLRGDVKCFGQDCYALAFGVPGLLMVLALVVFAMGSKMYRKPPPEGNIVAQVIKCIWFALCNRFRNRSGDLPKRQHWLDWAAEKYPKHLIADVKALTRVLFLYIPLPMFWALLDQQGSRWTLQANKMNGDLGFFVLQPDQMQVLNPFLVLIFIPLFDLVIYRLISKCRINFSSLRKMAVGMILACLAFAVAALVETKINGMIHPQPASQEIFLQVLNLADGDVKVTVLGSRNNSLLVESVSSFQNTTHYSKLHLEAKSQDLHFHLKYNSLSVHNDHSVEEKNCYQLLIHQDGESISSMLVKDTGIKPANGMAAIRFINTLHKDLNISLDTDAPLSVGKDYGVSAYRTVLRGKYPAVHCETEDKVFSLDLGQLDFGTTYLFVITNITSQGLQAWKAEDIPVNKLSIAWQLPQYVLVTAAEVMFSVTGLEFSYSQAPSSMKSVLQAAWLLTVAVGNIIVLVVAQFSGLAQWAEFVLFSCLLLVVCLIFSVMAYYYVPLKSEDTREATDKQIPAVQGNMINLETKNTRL
# Key:
# Type in all cases: functional, cell-based
# [1] = molecular target: T1, Solute carrier family 15 member 2; assay: TP_TRANSPORTER: inhibition of Gly-Sar uptake in PEPT2-expressing LLC-PK1 cells
# [2] = molecular target: T2, Solute carrier family 15 member 1; assay: TP_TRANSPORTER: inhibition of Gly-Sar uptake in PEPT1-expressing LLC-PK1 cells
# [3] = molecular target: T3, Solute carrier family 15 member 1 (Rattus norvegicus); assay: TP_TRANSPORTER: inhibition of Gly-Sar uptake (Gly-Sar: 20 uM, Gly-OMe: 10000 uM) in PEPT1-expressing LLC-PK1 cells
# [4] = molecular target: T4, Solute carrier family 15 member 2 (Rattus norvegicus); assay: TP_TRANSPORTER: inhibition of Gly-Sar uptake (Gly-Sar: 20 uM, Gly-OMe: 10000 uM) in PEPT2-expressing LLC-PK1 cells
# [5] = molecular target: T4, Solute carrier family 15 member 2 (Rattus norvegicus); assay: TP_TRANSPORTER: inhibition of Gly-Sar uptake (Gly-Sar: 20 uM, Leu-OMe: 10000 uM) in PEPT2-expressing LLC-PK1 cells
# [6] = molecular target: T3, Solute carrier family 15 member 1 (Rattus norvegicus); assay: TP_TRANSPORTER: inhibition of Gly-Sar uptake (Gly-Sar: 20 uM, Leu-OMe: 10000 uM) in PEPT1-expressing LLC-PK1 cells
# [7] = molecular target: T4, Solute carrier family 15 member 2 (Rattus norvegicus); assay: TP_TRANSPORTER: inhibition of Gly-Sar uptake (Gly-Sar: 20 uM, Tyr-OMe: 10000 uM) in PEPT2-expressing LLC-PK1 cells
# [8] = substrate: CN(CC(=O)O)C(=O)CN; assay: TP_TRANSPORTER: uptake in PEPT1-expressing LLC-PK1 cells
# [9] = substrate: CN(CC(=O)O)C(=O)CN; assay: TP_TRANSPORTER: uptake in PEPT2-expressing LLC-PK1 cells
molecule,measurement,setting,value
COC(=O)[C@@H](N)C(C)C,Ki,[1],830 µM
same,Ki,[2],3600 µM
COC(=O)CN,Activity,[3],inhibitor [+]
same,Activity,[4],inhibitor [+]
CC(C)[C@H](N)C(=O)OCCOCn1cnc2c(=O)[nH]c(N)nc21 [VALACYCLOVIR],Ki,[1],220 µM
same,Ki,[1]; llc-pk1,220 µM
same,Ki,[2],2500 µM and 2700 µM
COC(=O)[C@@H](N)CC(C)C,Activity,[5],inhibitor [+]
same,Activity,[6],inhibitor [+]
COC(=O)[C@@H](N)Cc1ccc(O)cc1,Activity,[7],inhibitor [+]
"Solute carrier family 15 member 1 (Rattus norvegicus), P51574 (protein) MGMSKSRGCFGYPLSIFFIVVNEFCERFSYYGMRALLVLYFRNFLGWDDDLSTAIYHTFVALCYLTPILGALIADSWLGKFKTIVSLSIVYTIGQAVISVSSINDLTDHDHDGSPNNLPLHVALSMIGLALIALGTGGIKPCVSAFGGDQFEEGQEKQRNRFFSIFYLAINAGSLLSTIITPILRVQQCGIHSQQACYPLAFGVPAALMAVALIVFVLGSGMYKKFQPQGNIMGKVAKCIRFAIKNRFRHRSKAFPKRNHWLDWAKEKYDERLISQIKIMTKVMFLYIPLPMFWALFDQQGSRWTLQATTMTGKIGTIEIQPDQMQTVNAILIVIMVPIVDAVVYPLIAKCGFNFTSLKKMTVGMFLASMAFVVAAIVQVEIDKTLPVFPSGNQVQIKVLNIGNNDMAVYFPGKNVTVAQMSQTDTFMTFDVDQLTSINVSSPGSPGVTTVAHEFEPGHRHTLLVWGPNLYRVVKDGLNQKPEKGENGIRFVSTLNEMITIKMSGKVYENVTSHSASNYQFFPSGQKDYTINTTEIAPNCSSDFKSSNLDFGSAYTYVIRSRASDGCLEVKEFEDIPPNTVNMALQIPQYFLLTCGEVVFSVTGLEFSYSQAPSNMKSVLQAGWLLTVAIGNIIVLIVAEAGHFDKQWAEYVLFASLLLVVCIIFAIMARFYTYINPAEIEAQFDEDEKKKGVGKENPYSSLEPVSQTNM",Km,[8],1900 µM
"Solute carrier family 15 member 2 (Rattus norvegicus), Q63424 (protein) MNPFQKNESKETLFSPVSTEEMLPRPPSPPKKSPPKIFGSSYPVSIAFIVVNEFCERFSYYGMKAVLTLYFLYFLHWNEDTSTSVYHAFSSLCYFTPILGAAIADSWLGKFKTIIYLSLVYVLGHVFKSLGAIPILGGKMLHTILSLVGLSLIALGTGGIKPCVAAFGGDQFEEEHAEARTRYFSVFYLAINAGSLISTFITPMLRGDVKCFGQDCYALAFGVPGLLMVLALVVFAMGSKMYRKPPPEGNIVAQVIKCIWFALCNRFRNRSGDLPKRQHWLDWAAEKYPKHLIADVKALTRVLFLYIPLPMFWALLDQQGSRWTLQANKMNGDLGFFVLQPDQMQVLNPFLVLIFIPLFDLVIYRLISKCRINFSSLRKMAVGMILACLAFAVAALVETKINGMIHPQPASQEIFLQVLNLADGDVKVTVLGSRNNSLLVESVSSFQNTTHYSKLHLEAKSQDLHFHLKYNSLSVHNDHSVEEKNCYQLLIHQDGESISSMLVKDTGIKPANGMAAIRFINTLHKDLNISLDTDAPLSVGKDYGVSAYRTVLRGKYPAVHCETEDKVFSLDLGQLDFGTTYLFVITNITSQGLQAWKAEDIPVNKLSIAWQLPQYVLVTAAEVMFSVTGLEFSYSQAPSSMKSVLQAAWLLTVAVGNIIVLVVAQFSGLAQWAEFVLFSCLLLVVCLIFSVMAYYYVPLKSEDTREATDKQIPAVQGNMINLETKNTRL",Km,[9],90 µM
